Activity calls are given as the source filed them. The calls are words filed in the database; no cut-off is given here.
Experiments:
SU-DHL-6 [1] = assay: Induction of apoptosis in human SU-DHL-6 cells assessed as viable cells at 0.01 uM incubated for 24 hrs by Annexin V-FITC/PI staining based flow cytometric analysis (reference value: 92.54 %); format: functional; settings: read-out: Activity
SU-DHL-6 [2] = assay: Induction of apoptosis in human SU-DHL-6 cells assessed as early apoptotic cells at 0.1 uM incubated for 24 hrs by Annexin V-FITC/PI staining based flow cytometric analysis (reference value: 2.32 %); format: functional
SU-DHL-6 [3] = assay: Induction of apoptosis in human SU-DHL-6 cells assessed as necrotic cells at 1 uM incubated for 24 hrs by Annexin V-FITC/PI staining based flow cytometric analysis (reference value: 0.39 %); format: functional
[4] = molecular target: von Hippel-Lindau disease tumor suppressor/Phosphatidylinositol 4,5-bisphosphate 3-kinase catalytic subunit beta isoform (Homo sapiens, UniProt P42338+P40337); assay: PROTAC activity at VHL/p110beta in human SU-DHL-6 cells assessed as induction of p110beta degradation incubated for 24 hrs by Western blot analysis; format: cell-based
SU-DHL-6 [5] = assay: Induction of autophagy in human SU-DHL-6 cells assessed as increase in LC3-II to LC3-I ratio at 1 to 100 nM incubated for 24 hrs by Western blot analysis; format: functional, cell-based; settings: dose 1-100 nM
SU-DHL-6 [6] = assay: Induction of apoptosis in human SU-DHL-6 cells assessed as early apoptotic cells at 0.01 uM incubated for 24 hrs by Annexin V-FITC/PI staining based flow cytometric analysis (reference value: 2.32 %); format: functional
SU-DHL-6 [7] = assay: Induction of apoptosis in human SU-DHL-6 cells assessed as necrotic cells at 0.01 uM incubated for 24 hrs by Annexin V-FITC/PI staining based flow cytometric analysis (reference value: 0.39 %); format: functional
SU-DHL-6 [8] = assay: Cell cycle arrest in human SU-DHL-6 cells assessed as increase in G1 phase cells at 0.1 uM incubated for 24 hrs by PI staining based flow cytometric analysis; format: functional
[9] = Toxicity in male nude mouse xenografted with human SU-DHL-6 cells assessed as effect on kidney morphology at 2 to 10 mg/kg, ip administered for 21 days by H and E staining based analysis; format: organism-based; settings: in vivo, 504 h, dose 2-10 mg/kg, time 21 day
SU-DHL-6 [10] = assay: Induction of apoptosis in human SU-DHL-6 cells assessed as late apoptotic cells at 0.01 uM incubated for 24 hrs by Annexin V-FITC/PI staining based flow cytometric analysis (reference value: 4.75 %); format: functional
SU-DHL-6 [11] = assay: Induction of apoptosis in human SU-DHL-6 cells assessed as viable cells at 1 uM incubated for 24 hrs by Annexin V-FITC/PI staining based flow cytometric analysis (reference value: 92.54 %); format: functional; settings: read-out: Activity
[12] = Toxicity in male nude mouse xenografted with human SU-DHL-6 cells assessed as effect on liver morphology at 2 to 10 mg/kg, ip administered for 21 days by H and E staining based analysis; format: organism-based; settings: in vivo, 504 h, dose 2-10 mg/kg, time 21 day
[13] = molecular target: Phosphatidylinositol 4,5-bisphosphate 3-kinase catalytic subunit alpha isoform (Homo sapiens, UniProt P42336); assay: Inhibition of PI3Kalpha (unknown origin) preincubated for 30 mins followed by ATP addition and measured after 1 hrs by ADP-Glo reagent based analysis
[14] = Toxicity in male nude mouse xenografted with human SU-DHL-6 cells assessed as effect on heart morphology at 2 to 10 mg/kg, ip administered for 21 days by H and E staining based analysis; format: organism-based; settings: in vivo, 504 h, dose 2-10 mg/kg, time 21 day
SU-DHL-6 [15] = assay: Cell cycle arrest in human SU-DHL-6 cells assessed as increase in G1 phase cells incubated for 24 hrs by PI staining based flow cytometric analysis; format: functional; settings: dose 0.01-1 µM
SU-DHL-6 [16] = assay: Inhibition of AKT phosphorylation in human SU-DHL-6 cells at 1 to 10000 nM incubated for 24 hrs by Western blot analysis; format: cell-based; settings: dose 1-10000 nM
SU-DHL-6 [17] = assay: Antiproliferative activity against human SU-DHL-6 cells assessed as cell growth inhibition incubated for 72 hrs by MTT assay; format: functional
SU-DHL-6 [18] = assay: Inhibition of AKT phosphorylation in human SU-DHL-6 cells at 0.1 to 1 uM incubated for 24 hrs by Western blot analysis; format: cell-based; settings: dose 0.1-1 µM
SU-DHL-6 [19] = assay: Induction of apoptosis in human SU-DHL-6 cells assessed as viable cells at 0.1 uM incubated for 24 hrs by Annexin V-FITC/PI staining based flow cytometric analysis (reference value: 92.54 %); format: functional; settings: read-out: Activity
[20] = Stability of compound in PBS at pH 7.4 assessed as parent compound remaining measured after 48 hrs by HPLC analysis; format: physicochemical; settings: read-out: Stability
[21] = Toxicity in male nude mouse xenografted with human SU-DHL-6 cells assessed as effect on spleen morphology at 2 to 10 mg/kg, ip administered for 21 days by H and E staining based analysis; format: organism-based; settings: in vivo, 504 h, dose 2-10 mg/kg, time 21 day
[22] = molecular target: von Hippel-Lindau disease tumor suppressor/Phosphatidylinositol 4,5-bisphosphate 3-kinase catalytic subunit alpha isoform (Homo sapiens, UniProt P42336+P40337); assay: PROTAC activity at VHL/p110alpha in human SU-DHL-6 cells assessed as induction of p110alpha degradation incubated for 24 hrs by Western blot analysis; format: cell-based
SU-DHL-6 [23] = assay: Induction of apoptosis in human SU-DHL-6 cells assessed as late apoptotic cells at 0.1 uM incubated for 24 hrs by Annexin V-FITC/PI staining based flow cytometric analysis (reference value: 4.75 %); format: functional
SU-DHL-6 [24] = assay: Antitumor activity against human SU-DHL-6 cells xenografted in male nude mouse model assessed as tumor growth inhibition at 2 mg/kg, ip administered for 21 days relative to control; format: functional; settings: SU-DHL-6, 504 h, time 21 day, read-out: TGI
SU-DHL-6 [25] = assay: Induction of apoptosis in human SU-DHL-6 cells assessed as late apoptotic cells at 1 uM incubated for 24 hrs by Annexin V-FITC/PI staining based flow cytometric analysis (reference value: 4.75 %); format: functional
SU-DHL-6 [26] = assay: Induction of apoptosis in human SU-DHL-6 cells assessed as early apoptotic cells at 1 uM incubated for 24 hrs by Annexin V-FITC/PI staining based flow cytometric analysis (reference value: 2.32 %); format: functional
SU-DHL-6 [27] = assay: Antitumor activity against human SU-DHL-6 cells xenografted in male nude mouse model assessed as reduction in Ki67 expression in tumor at 2 to 10 mg/kg, ip administered for 21 days by immunohistochemical analysis; format: functional, organism-based; settings: dose 2-10 mg/kg, time 21.0 day
[28] = Toxicity in male nude mouse xenografted with human SU-DHL-6 cells assessed as animal death at 2 to 10 mg/kg, ip administered for 21 days; format: organism-based; settings: in vivo, 504 h, dose 2-10 mg/kg, time 21 day
[29] = Toxicity in male nude mouse xenografted with human SU-DHL-6 cells assessed as effect on body weight at 2 to 10 mg/kg, ip administered for 21 days; format: organism-based; settings: in vivo, 504 h, dose 2-10 mg/kg, time 21 day
[30] = molecular target: Phosphatidylinositol 4,5-bisphosphate 3-kinase catalytic subunit beta isoform (Homo sapiens, UniProt P42338); assay: Inhibition of PI3Kbeta (unknown origin) preincubated for 30 mins followed by ATP addition and measured after 1 hrs by ADP-Glo reagent based analysis
SU-DHL-6 [31] = assay: Antitumor activity against human SU-DHL-6 cells xenografted in male nude mouse model assessed as tumor growth inhibition at 10 mg/kg, ip administered for 21 days relative to control; format: functional; settings: SU-DHL-6, 504 h, time 21 day, read-out: TGI
Mus musculus = assay: In vivo inhibition of AKT phosphorylation in male nude mouse xenografted with human SU-DHL-6 cells assessed as reduction in p-AKT expression level in tumor administered intraperitoneally for 21 days by Western blot analysis; format: functional, organism-based; settings: dose 2-10 mg/kg, route ip, time 21.0 day
SU-DHL-6 [32] = assay: Induction of apoptosis in human SU-DHL-6 cells assessed as necrotic cells at 0.1 uM incubated for 24 hrs by Annexin V-FITC/PI staining based flow cytometric analysis (reference value: 0.39 %); format: functional
Pfeiffer = assay: Antiproliferative activity against human Pfeiffer cells assessed as cell growth inhibition incubated for 72 hrs by MTT assay; format: functional

Chain of Phosphatidylinositol 4,5-bisphosphate 3-kinase catalytic subunit beta isoform (P42338 whole entry, canonical isoform): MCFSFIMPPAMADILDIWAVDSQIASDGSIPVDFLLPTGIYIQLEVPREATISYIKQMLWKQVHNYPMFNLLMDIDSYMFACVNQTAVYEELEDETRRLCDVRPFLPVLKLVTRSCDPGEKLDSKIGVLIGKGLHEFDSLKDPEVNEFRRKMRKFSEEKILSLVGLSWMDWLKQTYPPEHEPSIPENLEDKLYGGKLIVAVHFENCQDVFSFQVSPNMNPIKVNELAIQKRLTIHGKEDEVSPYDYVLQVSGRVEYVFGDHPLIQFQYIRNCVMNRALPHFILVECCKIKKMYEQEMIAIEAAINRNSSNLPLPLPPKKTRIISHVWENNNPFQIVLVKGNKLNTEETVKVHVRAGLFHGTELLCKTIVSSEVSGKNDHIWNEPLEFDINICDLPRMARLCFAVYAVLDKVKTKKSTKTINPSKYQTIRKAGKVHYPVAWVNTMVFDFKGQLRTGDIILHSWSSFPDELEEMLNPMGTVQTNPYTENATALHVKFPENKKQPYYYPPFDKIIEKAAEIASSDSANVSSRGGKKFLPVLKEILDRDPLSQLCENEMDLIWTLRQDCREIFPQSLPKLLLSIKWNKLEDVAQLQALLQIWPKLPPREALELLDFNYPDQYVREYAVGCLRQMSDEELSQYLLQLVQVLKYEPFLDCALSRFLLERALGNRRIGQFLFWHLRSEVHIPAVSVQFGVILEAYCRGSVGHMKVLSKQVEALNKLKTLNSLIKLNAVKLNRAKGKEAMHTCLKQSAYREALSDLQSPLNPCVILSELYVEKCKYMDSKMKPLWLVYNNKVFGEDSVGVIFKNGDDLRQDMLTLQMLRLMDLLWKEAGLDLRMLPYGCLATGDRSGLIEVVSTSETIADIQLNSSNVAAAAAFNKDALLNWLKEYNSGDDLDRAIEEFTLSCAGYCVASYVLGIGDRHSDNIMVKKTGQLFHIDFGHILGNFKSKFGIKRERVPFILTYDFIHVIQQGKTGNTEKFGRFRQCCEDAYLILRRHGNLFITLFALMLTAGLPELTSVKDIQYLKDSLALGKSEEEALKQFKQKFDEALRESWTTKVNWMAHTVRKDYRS
Chain of von Hippel-Lindau disease tumor suppressor/Phosphatidylinositol 4,5-bisphosphate 3-kinase catalytic subunit beta isoform (P42338 whole entry, canonical isoform): as above
Chain of von Hippel-Lindau disease tumor suppressor/Phosphatidylinositol 4,5-bisphosphate 3-kinase catalytic subunit beta isoform (P40337 whole entry, canonical isoform): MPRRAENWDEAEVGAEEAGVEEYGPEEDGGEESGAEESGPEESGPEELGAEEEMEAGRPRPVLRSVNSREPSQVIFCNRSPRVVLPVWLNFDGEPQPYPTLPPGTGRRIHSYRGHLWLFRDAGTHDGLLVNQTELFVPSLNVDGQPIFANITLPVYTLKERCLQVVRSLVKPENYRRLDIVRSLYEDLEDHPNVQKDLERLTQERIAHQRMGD
Chain of Phosphatidylinositol 4,5-bisphosphate 3-kinase catalytic subunit alpha isoform (P42336 whole entry, canonical isoform): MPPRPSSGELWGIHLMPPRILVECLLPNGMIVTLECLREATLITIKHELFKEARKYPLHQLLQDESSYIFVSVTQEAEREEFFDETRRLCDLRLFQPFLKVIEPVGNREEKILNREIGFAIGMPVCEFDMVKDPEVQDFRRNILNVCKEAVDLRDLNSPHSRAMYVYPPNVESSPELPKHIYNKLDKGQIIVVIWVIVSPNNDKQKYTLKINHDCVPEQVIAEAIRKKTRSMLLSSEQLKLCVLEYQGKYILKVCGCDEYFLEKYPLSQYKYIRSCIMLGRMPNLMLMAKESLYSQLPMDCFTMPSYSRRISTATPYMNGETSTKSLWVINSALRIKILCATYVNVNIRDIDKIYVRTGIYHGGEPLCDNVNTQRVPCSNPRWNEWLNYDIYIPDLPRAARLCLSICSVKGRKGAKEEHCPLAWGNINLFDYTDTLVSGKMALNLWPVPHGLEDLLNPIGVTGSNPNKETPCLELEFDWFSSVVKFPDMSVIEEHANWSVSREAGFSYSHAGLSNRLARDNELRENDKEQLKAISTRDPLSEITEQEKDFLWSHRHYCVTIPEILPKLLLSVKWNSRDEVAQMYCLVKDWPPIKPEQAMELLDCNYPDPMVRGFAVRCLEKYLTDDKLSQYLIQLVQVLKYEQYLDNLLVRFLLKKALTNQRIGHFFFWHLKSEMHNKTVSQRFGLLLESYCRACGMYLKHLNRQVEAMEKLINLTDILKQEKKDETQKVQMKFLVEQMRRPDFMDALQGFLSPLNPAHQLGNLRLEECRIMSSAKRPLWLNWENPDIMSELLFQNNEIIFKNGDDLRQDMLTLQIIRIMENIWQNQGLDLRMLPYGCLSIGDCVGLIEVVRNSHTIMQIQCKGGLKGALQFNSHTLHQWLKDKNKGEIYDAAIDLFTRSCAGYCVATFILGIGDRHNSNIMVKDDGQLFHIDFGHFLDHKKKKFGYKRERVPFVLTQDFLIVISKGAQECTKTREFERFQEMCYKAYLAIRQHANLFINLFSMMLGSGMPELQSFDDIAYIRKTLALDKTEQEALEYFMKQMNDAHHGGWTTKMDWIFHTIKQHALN
Chain of von Hippel-Lindau disease tumor suppressor/Phosphatidylinositol 4,5-bisphosphate 3-kinase catalytic subunit alpha isoform (P42336 whole entry, canonical isoform): as above
Chain of von Hippel-Lindau disease tumor suppressor/Phosphatidylinositol 4,5-bisphosphate 3-kinase catalytic subunit alpha isoform (P40337 whole entry, canonical isoform): as the sequence (P40337 whole entry, canonical isoform) above

COc1ncc(-c2ccc3ncnc(N[C@H]4CCN(C(=O)C5CCN(CCCCCCCCCC(=O)N[C@H](C(=O)N6C[C@H](O)C[C@H]6C(=O)N[C@@H](C)c6ccc(-c7scnc7C)cc6)C(C)(C)C)CC5)C4)c3n2)cc1C(=O)Oc1ccccc1
viability at 0.01 µM (SU-DHL-6 [1]): 91.7%
Activity (SU-DHL-6 [2]): 0.75%
Activity (SU-DHL-6 [3]): 0.76%
DC50 [4]: > 1000 nM
Activity (SU-DHL-6 [5]): Active
Activity (SU-DHL-6 [6]): 0.61%
Activity (SU-DHL-6 [7]): 0.51%
Activity (SU-DHL-6 [8]): Active; More Potent Than 10 Um Idelalisib
Activity [9]: Non-toxic
Activity (SU-DHL-6 [10]): 6.92%
viability at 1 µM (SU-DHL-6 [11]): 33.9%
Activity [12]: Non-toxic
IC50 [13]: 589 nM
Activity [14]: Non-toxic
Activity (SU-DHL-6 [15]): Dose-dependent-effect
inhibition (SU-DHL-6 [16]): Active
GI50 (SU-DHL-6 [17]): 170 nM
inhibition (SU-DHL-6 [18]): Active
viability at 0.1 µM (SU-DHL-6 [19]): 91.5%
remaining at 48 h [20]: > 80%
Activity [21]: Non-toxic
DC50 [22]: > 1000 nM
Activity (SU-DHL-6 [23]): 7.11%
inhibition in vivo at 2 mg/kg (SU-DHL-6 [24]): 59.1%
Activity (SU-DHL-6 [25]): 50.74%
Activity (SU-DHL-6 [26]): 14.65%
Activity (SU-DHL-6 [27]): Active
Activity [28]: Non-toxic
Activity [29]: Non-toxic
IC50 [30]: > 10000 nM
inhibition in vivo at 10 mg/kg (SU-DHL-6 [31]): 73.3%
inhibition (Mus musculus): Dose-dependent-effect
Activity (SU-DHL-6 [32]): 0.65%
GI50 (Pfeiffer): 350 nM

— ChEMBL document CHEMBL6134931, “Lysine-Targeted Covalent Strategy Leading to the Discovery of Novel Potent PROTAC-Based PI3Kδ Degraders” (J Med Chem, 2025)
